According to patent US6528481B1, “NG2/HM proteoglycan-binding peptides that home to angiogenic vasculature and related methods” (The Burnam Institute, priority 1999, dated 2003):
Where no end group is shown, it is not given here.

Experiments:
NG2Δ3 [1] = test: Solid-phase assay: binding of soluble NG2Δ3 to immobilized GST-peptide fusion proteins; parameters: species or system rat; conditions: soluble fusion protein, increasing concentrations (50 mg in FIG. 4A)
Experimental: Solid-phase assays were performed as described previously (Burg et al., supra, 1996). Briefly, fusion proteins (2 μg/well) were coated onto microtiter wells overnight at 4° C. Wells were blocked with 2% BSA in PBS and incubated with soluble NG2Δ3 (1 μg/well) for 2 hr at room temperature. After washing, wells were then incubated with an anti-NG2 polyclonal antibody followed by washing and incubation with an ^125I-labeled goat anti-rabbit IgG. After final washing, bound radioactivity was determined using a gamma counter. For competition studies, soluble NG2Δ3 was preincubated 15 min with increasing concentrations of soluble GST-fusion proteins prior to incubation on wells coated with GST-fusion protein.
The ability of soluble NG2 to bind to GST-TAASGVRSMH and GST-LTLRWVGLMS was tested by using a solid phase assay. Purified NG2Δ3 was incubated in wells coated with GST-TAASGVRSMH or GST-LTLRWVGLMS in the absence of inhibitor, or after preincubation with 50 mg of soluble GST-TAASGVRSMH, GST-LTLRWVGLMS or GST alone. Binding of NG2Δ3 was determined, and the results shown in FIG. 4 are representative of three independent experiments. Error bars show S.E.M. of the mean from triplicate wells. The differences indicated by “*” are considered significant by student t test (p<0.05). The differences indicated by “**” are considered highly significant by student t test (p<0.01).

NG2Δ3 [2] = test: Inhibition of phage binding to NG2Δ3-coated wells by GST-peptide fusion proteins; parameters: species or system rat; conditions: increasing concentrations of GST protein; for effect on binding of TAASGVRSMH-phage to NG2 coated wells: FIG. 3A; for effect on binding of LTLRWVGLMS-phage to NG2: FIG. 3B
Experimental: Binding of individual phage clones or an aliquot of unselected phage library control to NG2 or BSA-coated control wells was performed as described above using 1×10^9 input phage/well. For competition studies, phage incubations were performed in the presence of increasing concentrations of soluble NG2 or GST-fusion proteins.
GST-fusion proteins containing the decapeptide inserts were constructed as previously described (Rajotte et al., J. Clin. Invest. 102:430-437 (1998)). Briefly, peptide inserts were amplified by polymerase chain reaction (PCR) from the phage using specific M13 primers. PCR products were then digested with BamHI and EcoRI and inserted into the pGEX2TK vector. Fusion proteins were produced and purified according to the manufacturer's instructions (Pharmacia Biotech Inc.; Piscataway N.J.).
GST-peptide fusion proteins containing one of the two NG2-binding motifs, TAASGVRSMH (SEQ ID NO:1) or LTLRWVGLMS (SEQ ID NO:2), were tested for their ability to inhibit binding of phage to NG2Δ3-coated wells. Purified TAASGVRSMH-phage and LTLRWVGLMS-phage were incubated in NG2Δ3-coated wells in the presence of increasing concentrations of GST-TAASGVRSMH fusion protein, GST-LTLRWVGLMS fusion protein, or GST alone, and phage binding was quantified. Results shown in FIG. 3 are representative of three independent experiments and error bars show S.E.M. of the mean from triplicate platings of duplicate wells. The differences indicated by “*” are considered highly significant by student t test (p<0.01).

NG2 = NG2 (Rattus norvegicus, UniProt Q00657); test: Binding of peptide to NG2 (no method given)
Sequence of NG2 (Q00657 30-2326): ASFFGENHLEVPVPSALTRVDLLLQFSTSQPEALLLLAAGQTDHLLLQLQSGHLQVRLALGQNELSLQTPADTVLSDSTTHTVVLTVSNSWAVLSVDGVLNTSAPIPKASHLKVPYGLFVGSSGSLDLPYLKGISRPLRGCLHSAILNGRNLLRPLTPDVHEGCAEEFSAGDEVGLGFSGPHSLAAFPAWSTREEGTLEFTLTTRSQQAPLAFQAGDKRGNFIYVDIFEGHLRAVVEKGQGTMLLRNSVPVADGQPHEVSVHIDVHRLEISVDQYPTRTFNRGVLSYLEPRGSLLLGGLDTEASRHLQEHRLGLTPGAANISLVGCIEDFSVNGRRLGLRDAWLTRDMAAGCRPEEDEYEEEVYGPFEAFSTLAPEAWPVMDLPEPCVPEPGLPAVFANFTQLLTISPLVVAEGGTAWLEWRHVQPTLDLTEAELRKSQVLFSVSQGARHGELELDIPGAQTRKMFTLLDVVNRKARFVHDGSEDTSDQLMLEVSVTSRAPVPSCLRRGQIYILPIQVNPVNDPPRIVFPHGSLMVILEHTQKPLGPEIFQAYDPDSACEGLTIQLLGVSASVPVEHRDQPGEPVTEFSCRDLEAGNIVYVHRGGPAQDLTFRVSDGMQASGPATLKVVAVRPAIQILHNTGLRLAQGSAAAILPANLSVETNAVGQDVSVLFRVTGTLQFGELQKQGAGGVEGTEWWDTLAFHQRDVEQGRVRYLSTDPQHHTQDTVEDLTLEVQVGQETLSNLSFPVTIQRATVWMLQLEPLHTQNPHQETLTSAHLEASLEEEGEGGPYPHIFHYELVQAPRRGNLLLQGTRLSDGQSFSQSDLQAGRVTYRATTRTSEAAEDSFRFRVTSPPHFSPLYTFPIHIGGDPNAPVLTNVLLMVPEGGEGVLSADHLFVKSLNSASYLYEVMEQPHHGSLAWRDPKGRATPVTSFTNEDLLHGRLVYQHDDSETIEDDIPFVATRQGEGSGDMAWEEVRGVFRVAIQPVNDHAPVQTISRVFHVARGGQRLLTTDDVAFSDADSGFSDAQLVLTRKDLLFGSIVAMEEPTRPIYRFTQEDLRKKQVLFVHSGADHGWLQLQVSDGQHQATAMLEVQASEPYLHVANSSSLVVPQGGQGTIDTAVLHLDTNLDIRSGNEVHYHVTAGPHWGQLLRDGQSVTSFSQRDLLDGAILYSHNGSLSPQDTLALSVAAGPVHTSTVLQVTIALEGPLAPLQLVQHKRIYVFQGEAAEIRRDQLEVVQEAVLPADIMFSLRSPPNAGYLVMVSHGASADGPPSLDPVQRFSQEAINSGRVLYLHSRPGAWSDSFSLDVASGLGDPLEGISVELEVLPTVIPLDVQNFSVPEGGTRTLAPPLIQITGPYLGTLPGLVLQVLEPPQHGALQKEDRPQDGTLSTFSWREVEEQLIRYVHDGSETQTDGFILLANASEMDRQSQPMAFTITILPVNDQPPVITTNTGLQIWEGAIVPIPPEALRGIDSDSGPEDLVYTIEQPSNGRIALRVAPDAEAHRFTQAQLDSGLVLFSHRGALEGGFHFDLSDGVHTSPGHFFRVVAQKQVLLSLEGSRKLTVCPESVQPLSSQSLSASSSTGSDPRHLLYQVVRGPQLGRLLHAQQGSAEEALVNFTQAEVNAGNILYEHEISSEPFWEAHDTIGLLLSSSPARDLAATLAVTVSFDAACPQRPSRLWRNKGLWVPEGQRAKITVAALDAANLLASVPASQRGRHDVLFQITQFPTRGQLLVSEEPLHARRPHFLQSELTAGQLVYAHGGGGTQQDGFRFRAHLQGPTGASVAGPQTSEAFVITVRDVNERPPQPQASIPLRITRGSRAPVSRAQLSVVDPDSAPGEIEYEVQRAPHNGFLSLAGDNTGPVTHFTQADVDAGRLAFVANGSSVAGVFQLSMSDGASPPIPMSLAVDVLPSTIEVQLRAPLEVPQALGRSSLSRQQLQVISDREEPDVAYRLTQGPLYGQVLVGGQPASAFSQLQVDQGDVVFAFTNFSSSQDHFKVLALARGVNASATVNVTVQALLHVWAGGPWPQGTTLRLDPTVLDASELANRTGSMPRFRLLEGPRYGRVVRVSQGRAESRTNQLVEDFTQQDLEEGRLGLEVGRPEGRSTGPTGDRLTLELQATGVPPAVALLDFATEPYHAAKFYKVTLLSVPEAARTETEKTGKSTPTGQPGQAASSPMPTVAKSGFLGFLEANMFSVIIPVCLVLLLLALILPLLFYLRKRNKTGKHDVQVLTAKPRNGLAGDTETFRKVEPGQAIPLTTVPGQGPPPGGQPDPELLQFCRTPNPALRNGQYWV

[3] = tested on: recombinant fragment of rat NG2 (NG2ECΔ3); test: Biopanning of linear decapeptide phage library on NG2-coated wells; format: binding; conditions: for selection/enrichment of NG2-binding sequences in in vitro panning: five successive rounds on NG2-coated wells
Sequence of recombinant fragment of rat NG2 (NG2ECΔ3) (Q00657 30-1450 limits assumed, stated change not applied): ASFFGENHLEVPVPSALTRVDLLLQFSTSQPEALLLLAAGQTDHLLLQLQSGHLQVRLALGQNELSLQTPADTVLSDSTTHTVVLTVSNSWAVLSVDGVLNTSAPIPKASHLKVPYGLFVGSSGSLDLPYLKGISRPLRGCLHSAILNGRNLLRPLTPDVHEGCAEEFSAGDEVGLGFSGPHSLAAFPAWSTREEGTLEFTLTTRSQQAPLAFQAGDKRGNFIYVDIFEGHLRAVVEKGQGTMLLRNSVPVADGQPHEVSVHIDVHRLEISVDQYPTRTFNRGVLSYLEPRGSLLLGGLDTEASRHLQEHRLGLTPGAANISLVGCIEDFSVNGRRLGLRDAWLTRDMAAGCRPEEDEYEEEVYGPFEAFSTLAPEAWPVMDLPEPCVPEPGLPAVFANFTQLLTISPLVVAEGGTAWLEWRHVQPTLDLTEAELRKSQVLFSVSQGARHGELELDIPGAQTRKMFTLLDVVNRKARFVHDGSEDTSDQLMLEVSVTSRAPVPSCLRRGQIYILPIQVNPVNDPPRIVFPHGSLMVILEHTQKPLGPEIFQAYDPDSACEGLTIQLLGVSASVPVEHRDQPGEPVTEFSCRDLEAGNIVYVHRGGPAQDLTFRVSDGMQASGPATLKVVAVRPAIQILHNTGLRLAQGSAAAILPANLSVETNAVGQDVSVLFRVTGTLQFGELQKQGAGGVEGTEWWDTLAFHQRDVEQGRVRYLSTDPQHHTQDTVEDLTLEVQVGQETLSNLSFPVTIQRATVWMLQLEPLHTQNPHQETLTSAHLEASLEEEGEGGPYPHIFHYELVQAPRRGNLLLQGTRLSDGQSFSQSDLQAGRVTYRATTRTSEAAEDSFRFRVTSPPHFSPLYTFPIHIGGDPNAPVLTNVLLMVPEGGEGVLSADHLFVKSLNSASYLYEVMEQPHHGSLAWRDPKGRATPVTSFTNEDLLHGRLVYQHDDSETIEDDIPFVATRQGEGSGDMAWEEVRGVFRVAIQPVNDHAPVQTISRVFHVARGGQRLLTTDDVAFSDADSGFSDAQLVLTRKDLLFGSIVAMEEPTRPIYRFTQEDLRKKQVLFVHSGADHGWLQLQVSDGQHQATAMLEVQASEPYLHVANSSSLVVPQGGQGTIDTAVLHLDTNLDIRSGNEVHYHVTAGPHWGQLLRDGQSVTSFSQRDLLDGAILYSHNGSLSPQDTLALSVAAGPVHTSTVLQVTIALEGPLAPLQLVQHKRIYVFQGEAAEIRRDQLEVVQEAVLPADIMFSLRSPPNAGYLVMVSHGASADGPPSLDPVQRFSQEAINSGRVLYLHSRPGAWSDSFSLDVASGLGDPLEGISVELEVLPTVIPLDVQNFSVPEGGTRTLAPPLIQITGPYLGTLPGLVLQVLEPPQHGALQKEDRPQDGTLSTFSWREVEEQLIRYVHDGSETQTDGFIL
Description: To identify peptide motifs capable of interacting with NG2, recombinant NG2 fragments consisting of the N-terminal two-thirds of the extracellular domain of NG2 proteoglycan were generated. Briefly, a recombinant fragment of rat NG2 consisting of the N-terminal two-thirds of the extracellular domain (NG2ECΔ3) was purified from transfected human embryonic kidney 293 cells as described (Tillet et al., J. Biol. Chem. 272:10769-10776 (1997)). Recombinant NG2 diluted in phosphate buffered saline (PBS) (2 μg NG2/well) was coated onto microtiter wells overnight at 4° C. Wells were blocked with 2% bovine serum albumin (BSA) in PBS for 1 hr at room temperature. For biopanning, phage (1×10^11 TU) from a linear decapeptide phage library diluted in 2% BSA were added to NG2-coated wells and incubated for 2 hr at room temperature. Wells were washed with PBS containing 0.1% TWEEN-20 to remove unbound phage. Bound phage were recovered by direct infection of wells with exponentially growing K91kan bacteria, followed by phage amplification overnight at 37° C. Amplified phage were then subjected to four subsequent rounds of selection on NG2-coated wells. Phage binding was quantified by counting colonies from aliquots of phage-infected bacteria removed from NG2-coated wells. Phage were sequenced from randomly selected clones as described previously (Rajotte et al., J. Clin. Invest. […]:430-437 (1998)).
To identify peptide motifs capable of interacting with NG2, the recombinant NG2 fragments were used to select phage clones from a random decapeptide phage display library. Bound phage were isolated and used for successive rounds of panning on the NG2 proteoglycan. Five successive rounds of biopanning were performed. Random clones were sequenced from rounds II to V. Sequence analysis from the final three rounds of panning are shown in Table 1. In parentheses is the number of clones displaying the same sequence. The sequences shown in column III of Table 1 are referenced as SEQ ID NOS:1-15.

Sequence of NG2Δ3 (Q00657 30-1450 limits assumed, stated change not applied): as above

GST-LTLRWVGLMS: GST-fusion protein containing the decapeptide insert LTLRWVGLMS ({GST}-LTLRWVGLMS)
effect of preincubation on binding of NG2 to wells coated with GST-TAASGVRSMH (NG2Δ3 [1]): inhibited binding
effect on binding of TAASGVRSMH-phage to NG2 coated wells (NG2Δ3 [2]): inhibited
effect on binding of LTLRWVGLMS-phage to NG2 (NG2Δ3 [2]): inhibited the binding

CLSGSLSC
binding to NG2 (NG2): found to bind to NG2

LTLRWVGLMS
selection/enrichment of NG2-binding sequences in in vitro panning [3]: specifically enriched in later rounds of in vitro panning
number of clones displaying the same sequence ([3]; panning round IV): LTLRWVGLMS (10)
number of clones displaying the same sequence ([3]; panning round V): LTLRWVGLMS (SEQ ID NO: 2) (7)

TAASGVRSMH
selection/enrichment of NG2-binding sequences in in vitro panning [3]: specifically enriched in later rounds of in vitro panning
number of clones displaying the same sequence ([3]; panning round IV): TAASGVRSMH (16)
number of clones displaying the same sequence ([3]; panning round V): TAASGVRSMH (SEQ ID NO: 1) (8)

GST-TAASGVRSMH: GST-fusion protein containing the decapeptide insert TAASGVRSMH ({GST}-TAASGVRSMH)
effect of preincubation on binding of NG2 to wells coated with GST-TAASGVRSMH (NG2Δ3 [1]): dose-dependent decrease in binding
effect on binding of TAASGVRSMH-phage to NG2 coated wells (NG2Δ3 [2]): dose-dependent decrease in binding
effect on binding of LTLRWVGLMS-phage to NG2 (NG2Δ3 [2]): inhibited the binding

GGGTRAGMKY
number of clones displaying the same sequence ([3]; panning round III): GGGTRAGMKY (SEQ ID NO: 3) (2)

control GST protein: control GST protein containing no peptide insert [reference compound]
effect on binding of TAASGVRSMH-phage to NG2 coated wells (NG2Δ3 [2]): little effect on binding
effect on binding of LTLRWVGLMS-phage to NG2 (NG2Δ3 [2]): no significant effect on the binding
